# According to patent US20220304976A1, “Method of simultaneously treating viral disease caused coronavirus, its variants and mutants using a pharmaceutical micronutrient composition” (priority 2021, published 2022):
# Key:
# hACE2 receptor = target: T1, hACE2 receptor (Homo sapiens, UniProt Q9BYF1); type: binding; conditions: for Binging with ACE2 (% of control ± SD): Table 3; for Binging with ACE2 (% of control ± SD) / Binging to ACE2 (% of control ± DS): tested at 0.1 mg/ml; for Binging to ACE2 (% of control ± DS): Table 4
# T1 construct: purchased GenScript
# T1 sequence (Q9BYF1 18-740): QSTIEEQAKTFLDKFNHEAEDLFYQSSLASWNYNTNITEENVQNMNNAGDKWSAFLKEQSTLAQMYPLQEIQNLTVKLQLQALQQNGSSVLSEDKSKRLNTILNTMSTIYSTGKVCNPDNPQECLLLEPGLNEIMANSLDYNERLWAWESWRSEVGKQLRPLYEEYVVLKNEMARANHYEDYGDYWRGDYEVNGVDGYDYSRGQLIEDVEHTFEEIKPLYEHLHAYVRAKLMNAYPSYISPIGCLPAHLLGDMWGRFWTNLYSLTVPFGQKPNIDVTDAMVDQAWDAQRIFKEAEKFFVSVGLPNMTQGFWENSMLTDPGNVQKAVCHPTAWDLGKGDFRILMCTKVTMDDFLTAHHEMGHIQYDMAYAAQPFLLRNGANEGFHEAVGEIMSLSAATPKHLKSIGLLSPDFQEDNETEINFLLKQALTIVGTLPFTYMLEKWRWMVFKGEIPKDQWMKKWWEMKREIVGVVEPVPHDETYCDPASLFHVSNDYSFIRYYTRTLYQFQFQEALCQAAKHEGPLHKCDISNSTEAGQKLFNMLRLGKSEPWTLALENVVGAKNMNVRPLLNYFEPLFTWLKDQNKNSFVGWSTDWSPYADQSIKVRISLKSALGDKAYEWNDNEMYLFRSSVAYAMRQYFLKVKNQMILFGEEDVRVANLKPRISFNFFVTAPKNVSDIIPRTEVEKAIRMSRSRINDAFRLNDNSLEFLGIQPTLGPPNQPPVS
# [1] = target: T2, RBD of SARS-CoV-2 spike protein binding to hACE2 receptor (Severe acute respiratory syndrome coronavirus 2, UniProt P0DTC2); assay: biochemical; conditions: for inhibition at 100 µg/mL: 100 μg/ml, read-out: efficacy in inhibiting RBD binding to hACE2
# T2 construct: purchased GenScript
# [2] = system: SARS-CoV-2 spike protein pseudo-typed virions; type: cell-based
# [3] = system: SARS-CoV-2 spike protein pseudo-typed virions; type: cell-based; remark: listed apart in the source
Structure (SMILES),Binging with ACE2 (% of control ± SD) (hACE2 receptor),also measured
O=C1O[C@H]2[C@@H]3OC(=O)c4cc(O)c(O)c(O)c4-c4c(O)c(O)c5oc(=O)c6c(c(O)c(O)c7oc(=O)c4c5c76)-c4c(cc(O)c(O)c4O)C(=O)OC[C@H]3OC(O)[C@@H]2OC(=O)c2cc(O)c(O)c(O)c2-c2c1cc(O)c(O)c2O (mixture of isomers) [Punicalagin],5.4 ± 2.3 % of control,–
C=C1CC[C@@H]2[C@](C)(CO)[C@H](O)CC[C@@]2(C)[C@@H]1C/C=C1/C(=O)OC[C@H]1O [Andrographolide],–,Binding to RBD (% of control ± DS) [1]: 22.1 ± 2.5 % of control; Binging to ACE2 (% of control ± DS) (hACE2 receptor): 5.6 ± 2.4 % of control
O=c1cc(-c2ccc(O)cc2)oc2cc(O)cc(O)c12 [Apigenin],8.3 ± 1.9 % of control,–
O=c1cc(-c2ccccc2)oc2cc(O)c(O)c(O)c12 [Baicalein],7.4 ± 1.4 % of control,–
O=C(O)[C@H]1O[C@@H](Oc2cc3oc(-c4ccccc4)cc(=O)c3c(O)c2O)[C@H](O)[C@@H](O)[C@@H]1O [Baicalin],4.9 ± 1.9 % of control,–
COc1ccc2cc3[n+](cc2c1OC)CCc1cc2c(cc1-3)OCO2 [Berberine],9.4 ± 2.4 % of control,–
Oc1ccc2c(c1)OC[C@]1(O)Cc3cc(O)c(O)cc3[C@H]21 [Brazilin],4.6 ± 2.2 % of control,"affinity in binding to the RBD-spike protein of SARS-CoV-2 (in words) [1]: exhibited the highest affinity; inhibition at 100 µg/mL [1]: 100%; binding to the ACE2 receptor itself (in words) (hACE2 receptor): neither brazilin, nor theaflavin-3,3′-digallate displayed binding affinity; inhibition of pseudo-typed virion binding to hACE2/A549 (in words) [2]: similarly inhibited binding; concentration from which inhibition of transduction is statistically significant [3]: 10 µg/mL"
"C=C(C)[C@@H]1CCC(C)=C[C@H]1c1c(O)cc(CCCCC)cc1O [Cannabidiol, reference compound]",5.8 ± 2.0 % of control,–
CC(C)c1cc2c(c(O)c1O)[C@@]1(C(=O)O)CCCC(C)(C)[C@@H]1CC2 [Carnosic acid],6.9 ± 4.1 % of control,–
O[C@H]1[C@H](O)[C@@H](O)CN2CC[C@H](O)[C@H]12 [Castanospermine],5.5 ± 3.1 % of control,–
O=C(/C=C/c1ccc(O)c(O)c1)O[C@@H]1C[C@](O)(C(=O)O)C[C@@H](O)[C@H]1O [Chlorogenic acid],4.7 ± 1.6 % of control,–
COc1cc(/C=C/C(=O)CC(=O)/C=C/c2ccc(O)c(OC)c2)ccc1O [Curcumin],4.6 ± 2.4 % of control,affinity in binding to the RBD-spike protein of SARS-CoV-2 (in words) [1]: exhibited the highest affinity; inhibition at 100 µg/mL [1]: 100%; binding to the ACE2 receptor itself (in words) (hACE2 receptor): moderate binding; inhibition of pseudo-typed virion binding to hACE2/A549 (in words) [2]: similarly inhibited binding; concentration from which inhibition of transduction is statistically significant [3]: 5.0 µg/mL
O=c1c(O)c(-c2ccc(O)c(O)c2)oc2cc(O)ccc12 [Fisetin],6.0 ± 2.4 % of control,–
O=C(O)c1cc(O)c(O)c(O)c1 [Gallic acid],6.5 ± 1.3 % of control,–
O=c1c(-c2ccc(O)cc2)coc2cc(O)cc(O)c12 [Genistein],9.4 ± 2.7 % of control,–
CC1(C)[C@@H](O[C@H]2O[C@H](C(=O)O)[C@@H](O)[C@H](O)[C@H]2O[C@@H]2O[C@H](C(=O)O)[C@@H](O)[C@H](O)[C@H]2O)CC[C@]2(C)[C@H]3C(=O)C=C4[C@@H]5C[C@@](C)(C(=O)O)CC[C@]5(C)CC[C@@]4(C)[C@]3(C)CC[C@@H]12 [Glycyrrhizic acid],–,Binging to ACE2 (% of control ± DS) (hACE2 receptor): 10.1 ± 2.8 % of control
COc1ccc([C@@H]2CC(=O)c3c(O)cc(O)cc3O2)cc1O [Hesperetin],4.9 ± 2.7 % of control,–
COc1c(O)cc2oc(-c3ccc(O)cc3)cc(=O)c2c1O [Hispidulin],7.4 ± 2.1 % of control,–
O=c1c(O)c(-c2ccc(O)cc2)oc2cc(O)cc(O)c12 [Kaempferol],6.2 ± 2.5 % of control,–
O=c1cc(-c2ccc(O)c(O)c2)oc2cc(O)cc(O)c12 [Luteolin],4.8 ± 1.6 % of control,–
O=C(O)CC(O)C(=O)O (stereo not shown) [Malic acid],5.8 ± 1.4 % of control,–
O=c1c(O)c(-c2ccc(O)cc2O)oc2cc(O)cc(O)c12 [Morin],5.6 ± 3.1 % of control,–
O=c1c(O)c(-c2cc(O)c(O)c(O)c2)oc2cc(O)cc(O)c12 [Myricetin],5.6 ± 2.1 % of control,–
O=C1C[C@@H](c2ccc(O)cc2)Oc2cc(O)cc(O)c21 [Naringenin],8.3 ± 1.6 % of control,Binding with RBD (% of control ± SD) [1]: 20 ± 5.1 % of control
C[C@@H]1O[C@@H](O[C@H]2[C@H](Oc3cc(O)c4c(c3)O[C@H](c3ccc(O)cc3)CC4=O)O[C@H](CO)[C@@H](O)[C@@H]2O)[C@H](O)[C@H](O)[C@H]1O [Naringin],3.7 ± 1.1 % of control,–
